Assay results as given in US8802597B2, “Herbicidal pyrimidines” (E I du Pont de Nemours and Company, priority 2003, dated 2014).

Key:
Assay in all cases: Test C pre/postemergence
Type in all cases: in vivo
kochia (Kochia scoparia) = details: for Kochia plant response rating: scale 0 to 100 (0 no effect, 100 complete control)
Excerpt: (§1) Seeds or nutlets of plant species selected from bermudagrass (Cynodon dactylon), Surinam grass (Brachiaria decumbens), cocklebur (Xanthium strumarium), corn (Zea mays), crabgrass (Digitaria sanguinalis), woolly cupgrass (Eriochloa villosa), giant foxtail (Setaria faberii), goosegrass (Eleusine indica), johnsongrass (Sorghum halepense), kochia (Kochia scoparia), lambsquarters (Chenopodium album), morningglory (Ipomoea coccinea), eastern black nightshade (Solanum ptycanthum), yellow nutsedge (Cyperus esculentus), pigweed (Amaranthus retroflexus), common ragweed (Ambrosia elatior), soybean (Glycine max), common (oilseed) sunflower (Helianthus annuus), and velvetleaf (Abutilon theophrasti) were planted and treated preemergence with test chemicals formulated in a non-phytotoxic solvent mixture which included a surfactant.
(§2) At the same time, plants selected from these crop and weed species and also winter barley (Hordeum vulgare), blackgrass (Alopecurus myosuroides), canarygrass (Phalaris minor), chickweed (Stellaria media), downy brome (Bromus tectorum), green foxtail (Setaria viridis), Italian ryegrass (Lolium multiflorum), wheat (Triticum aestivum), wild oat (Avena fatua) and windgrass (Apera spica-venti) were treated with postemergence applications of some of the test chemicals formulated in the same manner. Plants ranged in height from 2 to 18 cm (1- to 4-leaf stage) for postemergence treatments. Plant species in the flooded paddy test consisted of rice (Oryza sativa), umbrella sedge (Cyperus difformis), duck salad (Heteranthera limosa) and barnyardgrass (Echinochloa crus-galli) grown to the 2-leaf stage for testing. Treated plants and controls were maintained in a greenhouse for 12 to 14 days, after which time all species were compared to controls and visually evaluated. Plant response ratings, summarized in Table C, are based on a scale of 0 to 100 where 0 is no effect and 100 is complete control. A dash (-) response means no test result.

[1] = tested on: johnsongrass (Sorghum halepense); details: for Johnsongrass plant response rating: scale 0 to 100 (0 no effect, 100 complete control)
Excerpt: as §1, §2

[2] = tested on: crabgrass (Digitaria sanguinalis); details: for Crabgrass plant response rating: scale 0 to 100 (0 no effect, 100 complete control)
Excerpt: as §1, §2

[3] = tested on: pigweed (Amaranthus retroflexus); details: for Pigweed plant response rating: scale 0 to 100 (0 no effect, 100 complete control)
Excerpt: as §1, §2

[4] = tested on: cocklebur (Xanthium strumarium); details: for Cocklebur plant response rating: scale 0 to 100 (0 no effect, 100 complete control)
Excerpt: as §1, §2

[5] = Preemergence, 31 g ai/ha, scale 0 to 100, 0 no effect, 100 complete control
[6] = Preemergence, 62 g ai/ha, scale 0 to 100, 0 no effect, 100 complete control
[7] = Preemergence, 125 g ai/ha, scale 0 to 100
[8] = Preemergence, 250 g ai/ha, scale 0 to 100
[9] = Postemergence, 250 g ai/ha, scale 0 to 100
[10] = Postemergence, 500 g ai/ha, scale 0 to 100
[11] = Preemergence, 500 g ai/ha, scale 0 to 100

COC(=O)Cc1nc(C2CC2)nc(N)c1Br [Compound 13]
Plant response rating, Kochia (kochia (Kochia scoparia); [5]): 45
Plant response rating, Kochia (kochia (Kochia scoparia); [6]): 60
Plant response rating, Kochia (kochia (Kochia scoparia); [7]): 80
Plant response rating, Kochia (kochia (Kochia scoparia); [8]): 85
Plant response rating, Johnsongrass [1, 5]: 0
Plant response rating, Johnsongrass [1, 6]: 0
Plant response rating, Johnsongrass [1, 7]: 5
Plant response rating, Johnsongrass [1, 8]: 45
Plant response rating, Crabgrass [2, 5]: 0
Plant response rating, Crabgrass [2, 6]: 0
Plant response rating, Crabgrass [2, 7]: 0
Plant response rating, Crabgrass [2, 8]: 0
Plant response rating, Pigweed [3, 5]: 50
Plant response rating, Pigweed [3, 6]: 60
Plant response rating, Pigweed [3, 7]: 85
Plant response rating, Pigweed [3, 8]: 90
Plant response rating, Cocklebur [4, 5]: 40
Plant response rating, Cocklebur [4, 6]: 60
Plant response rating, Cocklebur [4, 7]: 90
Plant response rating, Cocklebur [4, 8]: 95

CCCOC(=O)c1nc(C2CC2)nc(N)c1Br [Compound 15]
Kochia plant response rating (kochia (Kochia scoparia); Postemergence, 62 g ai/ha): 95
Kochia plant response rating (kochia (Kochia scoparia); Postemergence, 125 g ai/ha): 95
Plant response rating, Kochia (kochia (Kochia scoparia); [9]): 100
Plant response rating, Kochia (kochia (Kochia scoparia); [10]): 100
Plant response rating, Kochia (kochia (Kochia scoparia); [6]): 95
Plant response rating, Kochia (kochia (Kochia scoparia); [7]): 100
Plant response rating, Kochia (kochia (Kochia scoparia); [8]): 100
Plant response rating, Kochia (kochia (Kochia scoparia); [11]): 100
Johnsongrass plant response rating ([1]; Postemergence, 62 g ai/ha): 20
Johnsongrass plant response rating ([1]; Postemergence, 125 g ai/ha): 55
Plant response rating, Johnsongrass [1, 9]: 70
Plant response rating, Johnsongrass [1, 10]: 80
Plant response rating, Johnsongrass [1, 6]: 20
Plant response rating, Johnsongrass [1, 7]: 65
Plant response rating, Johnsongrass [1, 8]: 75
Plant response rating, Johnsongrass [1, 11]: 95
Crabgrass plant response rating ([2]; Postemergence, 62 g ai/ha): 15
Crabgrass plant response rating ([2]; Postemergence, 125 g ai/ha): 45
Plant response rating, Crabgrass [2, 9]: 65
Plant response rating, Crabgrass [2, 10]: 80
Plant response rating, Crabgrass [2, 6]: 0
Plant response rating, Crabgrass [2, 7]: 95
Plant response rating, Crabgrass [2, 8]: 95
Plant response rating, Crabgrass [2, 11]: 100
Pigweed plant response rating ([3]; Postemergence, 62 g ai/ha): 65
Pigweed plant response rating ([3]; Postemergence, 125 g ai/ha): 70
Plant response rating, Pigweed [3, 9]: 85
Plant response rating, Pigweed [3, 10]: 100
Plant response rating, Pigweed [3, 6]: 90
Plant response rating, Pigweed [3, 7]: 100
Plant response rating, Pigweed [3, 8]: 100
Plant response rating, Pigweed [3, 11]: 100
Cocklebur plant response rating ([4]; Postemergence, 62 g ai/ha): 85
Cocklebur plant response rating ([4]; Postemergence, 125 g ai/ha): 100
Plant response rating, Cocklebur [4, 9]: 100
Plant response rating, Cocklebur [4, 10]: 100
Plant response rating, Cocklebur [4, 6]: 65
Plant response rating, Cocklebur [4, 7]: 90
Plant response rating, Cocklebur [4, 8]: 100
Plant response rating, Cocklebur [4, 11]: 100

CCCCOC(=O)c1nc(C2CC2)nc(N)c1Br [Compound 16]
Plant response rating (scale of 0 to 100), Kochia (kochia (Kochia scoparia); Postemergence, 31 g ai/ha): 95
Kochia plant response rating (kochia (Kochia scoparia); Postemergence, 62 g ai/ha): 100
Kochia plant response rating (kochia (Kochia scoparia); Postemergence, 125 g ai/ha): 100
Plant response rating, Kochia (kochia (Kochia scoparia); [9]): 100
Plant response rating, Kochia (kochia (Kochia scoparia); [5]): 90
Plant response rating, Kochia (kochia (Kochia scoparia); [6]): 95
Plant response rating, Kochia (kochia (Kochia scoparia); [7]): 100
Plant response rating, Kochia (kochia (Kochia scoparia); [8]): 100
Plant response rating (scale of 0 to 100), Johnsongrass ([1]; Postemergence, 31 g ai/ha): 0
Johnsongrass plant response rating ([1]; Postemergence, 62 g ai/ha): 0
Johnsongrass plant response rating ([1]; Postemergence, 125 g ai/ha): 60
Plant response rating, Johnsongrass [1, 9]: 70
Plant response rating, Johnsongrass [1, 5]: 0
Plant response rating, Johnsongrass [1, 6]: 40
Plant response rating, Johnsongrass [1, 7]: 65
Plant response rating, Johnsongrass [1, 8]: 80
Plant response rating (scale of 0 to 100), Crabgrass ([2]; Postemergence, 31 g ai/ha): 0
Crabgrass plant response rating ([2]; Postemergence, 62 g ai/ha): 15
Crabgrass plant response rating ([2]; Postemergence, 125 g ai/ha): 45
Plant response rating, Crabgrass [2, 9]: 75
Plant response rating, Crabgrass [2, 5]: 0
Plant response rating, Crabgrass [2, 6]: 0
Plant response rating, Crabgrass [2, 7]: 65
Plant response rating, Crabgrass [2, 8]: 95
Plant response rating (scale of 0 to 100), Pigweed ([3]; Postemergence, 31 g ai/ha): 85
Pigweed plant response rating ([3]; Postemergence, 62 g ai/ha): 90
Pigweed plant response rating ([3]; Postemergence, 125 g ai/ha): 95
Plant response rating, Pigweed [3, 9]: 95
Plant response rating, Pigweed [3, 5]: 85
Plant response rating, Pigweed [3, 6]: 95
Plant response rating, Pigweed [3, 7]: 100
Plant response rating, Pigweed [3, 8]: 100
Plant response rating (scale of 0 to 100), Cocklebur ([4]; Postemergence, 31 g ai/ha): 75
Cocklebur plant response rating ([4]; Postemergence, 62 g ai/ha): 95
Cocklebur plant response rating ([4]; Postemergence, 125 g ai/ha): 100
Plant response rating, Cocklebur [4, 9]: 100
Plant response rating, Cocklebur [4, 5]: 45
Plant response rating, Cocklebur [4, 6]: 95
Plant response rating, Cocklebur [4, 7]: 95
Plant response rating, Cocklebur [4, 8]: 100
